Reference: patent US11945822B2, “Pyrazolo-triazine and/or pyrazolo-pxrimidine derivatives as selective inhibitor of cyclin dependent kinase” (QURIENT CO., LTD., priority 2018, dated 2024)

molecular target: T1, CDK1/Cyclin B (Homo sapiens, UniProt P06493); test: Enzymatic assay for CDK1 (FRET based LANCE Ultra kinase assay); format: biochemical; details: read-out: CDK1 enzymatic activity (IC50 activity range)
T1 construct: purchased Invitrogen PR4768C
Method in brief: (§1)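 LANCE Ultra TR-FRET: ULight-MBP peptide (68 nM) with ATP at Km, […], 60 min at 23° C. EDTA plus Eu-anti-phospho-MBP added, another 60 min, then 665/615 nm emission read. Compounds tested as 8-dose 4-fold DMSO dilutions.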

T1 sequence (P06493 whole entry): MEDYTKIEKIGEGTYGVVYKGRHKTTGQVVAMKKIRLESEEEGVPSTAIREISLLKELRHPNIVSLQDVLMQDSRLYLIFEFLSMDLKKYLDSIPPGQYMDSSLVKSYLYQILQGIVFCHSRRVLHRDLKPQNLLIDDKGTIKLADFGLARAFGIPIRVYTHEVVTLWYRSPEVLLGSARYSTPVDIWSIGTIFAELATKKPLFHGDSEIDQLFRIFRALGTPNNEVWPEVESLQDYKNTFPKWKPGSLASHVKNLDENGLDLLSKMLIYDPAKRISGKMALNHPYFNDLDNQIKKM
T1 sequence (P14635 whole entry partner): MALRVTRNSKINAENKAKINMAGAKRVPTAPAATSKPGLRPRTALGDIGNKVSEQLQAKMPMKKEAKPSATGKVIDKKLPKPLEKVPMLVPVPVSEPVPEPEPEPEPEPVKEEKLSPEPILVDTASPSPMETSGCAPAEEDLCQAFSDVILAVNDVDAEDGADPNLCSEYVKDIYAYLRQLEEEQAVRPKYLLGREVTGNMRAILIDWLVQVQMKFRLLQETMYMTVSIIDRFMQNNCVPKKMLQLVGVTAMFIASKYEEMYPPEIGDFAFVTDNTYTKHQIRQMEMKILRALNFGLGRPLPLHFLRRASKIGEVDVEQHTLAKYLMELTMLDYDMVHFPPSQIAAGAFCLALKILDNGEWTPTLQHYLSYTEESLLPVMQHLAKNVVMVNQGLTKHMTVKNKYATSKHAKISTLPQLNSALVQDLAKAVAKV

| IC50 [nM] | Structure (SMILES) |
| --- | --- |
| > 1000 | CC(C)c1cnn2c(NCc3c(Cl)cccc3Cl)nc(N3CCC(N)CC3)nc12 [Compound 257] |

same assay, conditions: read-out: CDK1 enzymatic activity (IC50 range)

| IC50 [nM] | Structure (SMILES) |
| --- | --- |
| > 1000 | CC(C)c1cnn2c(NCc3ccccc3-n3cccn3)nc(N3CCN(C)CC3)nc12 [Compound 3] |
| 100 to 1000 | NC1CCN(c2nc(NCc3ccccc3-n3cccn3)n3ncc(I)c3n2)CC1 [Compound 36] |
| > 1000 | CC(C)c1cnn2c(NCc3ccccc3-c3ccc4ccccc4[n+]3[O-])nc(N3CCC(N)CC3)nc12 [Compound 81] |
| > 1000 | CC(C)c1cnn2c(NCc3cccc(N4CCN(C)CC4)c3)nc(N3CCC(N)CC3)nc12 [Compound 83] |
| 100 to 1000 | CCC(=O)Nc1cccc(Oc2cccc(CNc3nc(N4CCC(N)CC4)nc4c(C(C)C)cnn34)c2)c1 [Compound 86] |

molecular target: T2, CDK2/Cyclin A (Homo sapiens, UniProt P24941); test: Enzymatic assay for CDK2 (FRET based LANCE Ultra kinase assay); format: biochemical; details: read-out: CDK2 enzymatic activity (IC50 activity range)
T2 construct: purchased Invitrogen PV6290
Method in brief: as §1

| IC50 [nM] | Structure (SMILES) |
| --- | --- |
| 100 to 1000 | CC(C)c1cnn2c(NCc3c(Cl)cccc3Cl)nc(N3CCC(N)CC3)nc12 [Compound 257] |

same assay, conditions: read-out: CDK2 enzymatic activity (IC50 range)

| IC50 [nM] | Structure (SMILES) |
| --- | --- |
| > 1000 | CC(C)c1cnn2c(NCc3ccccc3-n3cccn3)nc(N3CCN(C)CC3)nc12 [Compound 3] |
| 100 to 1000 | NC1CCN(c2nc(NCc3ccccc3-n3cccn3)n3ncc(I)c3n2)CC1 [Compound 36] |
| > 1000 | CC(C)c1cnn2c(NCc3ccccc3-c3ccc4ccccc4[n+]3[O-])nc(N3CCC(N)CC3)nc12 [Compound 81] |
| 100 to 1000 | CC(C)c1cnn2c(NCc3cccc(N4CCN(C)CC4)c3)nc(N3CCC(N)CC3)nc12 [Compound 83] |
| 100 to 1000 | CCC(=O)Nc1cccc(Oc2cccc(CNc3nc(N4CCC(N)CC4)nc4c(C(C)C)cnn34)c2)c1 [Compound 86] |

molecular target: T3, CDK5/p25 (Homo sapiens, UniProt Q00535); test: Enzymatic assay for CDK5 (FRET based LANCE Ultra kinase assay); format: biochemical; details: read-out: CDK5 enzymatic activity (IC50 activity range)
T3 construct: purchased Invitrogen PR8543B
T3 sequence (Q00535 whole entry): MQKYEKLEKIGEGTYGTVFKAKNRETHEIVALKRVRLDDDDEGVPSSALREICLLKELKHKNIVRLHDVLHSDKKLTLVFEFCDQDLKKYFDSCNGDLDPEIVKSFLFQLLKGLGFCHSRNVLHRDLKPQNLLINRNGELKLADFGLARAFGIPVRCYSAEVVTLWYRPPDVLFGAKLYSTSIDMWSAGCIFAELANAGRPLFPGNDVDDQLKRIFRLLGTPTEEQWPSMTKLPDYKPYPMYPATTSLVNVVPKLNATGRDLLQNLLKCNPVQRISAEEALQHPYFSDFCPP
T3 sequence (Q15078 99-307 partner limits assumed): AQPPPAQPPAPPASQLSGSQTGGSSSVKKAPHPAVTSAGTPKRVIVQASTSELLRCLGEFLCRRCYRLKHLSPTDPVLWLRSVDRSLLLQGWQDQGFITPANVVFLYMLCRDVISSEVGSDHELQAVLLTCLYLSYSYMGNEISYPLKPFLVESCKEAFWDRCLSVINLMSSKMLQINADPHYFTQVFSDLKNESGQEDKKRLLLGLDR
Method in brief: as §1

| IC50 [nM] | Structure (SMILES) |
| --- | --- |
| 100 to 1000 | CC(C)c1cnn2c(NCc3c(Cl)cccc3Cl)nc(N3CCC(N)CC3)nc12 [Compound 257] |

same assay, conditions: read-out: CDK5 enzymatic activity (IC50 range)

| IC50 [nM] | Structure (SMILES) |
| --- | --- |
| 100 to 1000 | CC(C)c1cnn2c(NCc3ccccc3-n3cccn3)nc(N3CCN(C)CC3)nc12 [Compound 3] |
| < 100 | NC1CCN(c2nc(NCc3ccccc3-n3cccn3)n3ncc(I)c3n2)CC1 [Compound 36] |
| > 1000 | CC(C)c1cnn2c(NCc3ccccc3-c3ccc4ccccc4[n+]3[O-])nc(N3CCC(N)CC3)nc12 [Compound 81] |
| 100 to 1000 | CC(C)c1cnn2c(NCc3cccc(N4CCN(C)CC4)c3)nc(N3CCC(N)CC3)nc12 [Compound 83] |
| < 100 | CCC(=O)Nc1cccc(Oc2cccc(CNc3nc(N4CCC(N)CC4)nc4c(C(C)C)cnn34)c2)c1 [Compound 86] |

molecular target: T4, CDK7/Cyclin H/MNAT1 (Homo sapiens, UniProt P50613); test: Enzymatic assay for CDK7 (FRET based LANCE Ultra kinase assay); format: biochemical; details: CDK1/CDK7
T4 construct: purchased Invitrogen PR6749B
T4 sequence (P50613 whole entry): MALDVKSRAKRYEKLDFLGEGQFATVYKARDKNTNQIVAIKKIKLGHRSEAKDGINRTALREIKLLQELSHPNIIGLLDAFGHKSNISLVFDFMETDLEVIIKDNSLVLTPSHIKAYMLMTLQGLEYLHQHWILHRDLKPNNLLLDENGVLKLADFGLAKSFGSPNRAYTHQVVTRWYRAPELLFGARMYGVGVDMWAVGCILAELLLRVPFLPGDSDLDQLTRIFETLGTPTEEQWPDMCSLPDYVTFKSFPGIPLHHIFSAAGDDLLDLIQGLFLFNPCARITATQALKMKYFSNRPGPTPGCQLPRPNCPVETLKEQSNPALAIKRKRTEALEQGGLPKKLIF
T4 sequence (P51946 whole entry partner): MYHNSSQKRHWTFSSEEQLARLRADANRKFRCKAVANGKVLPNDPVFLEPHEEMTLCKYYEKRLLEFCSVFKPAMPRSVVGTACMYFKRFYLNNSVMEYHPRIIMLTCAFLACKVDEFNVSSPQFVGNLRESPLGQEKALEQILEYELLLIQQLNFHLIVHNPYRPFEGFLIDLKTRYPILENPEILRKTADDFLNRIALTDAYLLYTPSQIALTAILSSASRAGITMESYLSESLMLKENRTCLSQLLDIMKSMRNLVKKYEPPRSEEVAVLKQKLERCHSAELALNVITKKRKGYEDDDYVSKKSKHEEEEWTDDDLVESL
T4 sequence (P51948 whole entry partner): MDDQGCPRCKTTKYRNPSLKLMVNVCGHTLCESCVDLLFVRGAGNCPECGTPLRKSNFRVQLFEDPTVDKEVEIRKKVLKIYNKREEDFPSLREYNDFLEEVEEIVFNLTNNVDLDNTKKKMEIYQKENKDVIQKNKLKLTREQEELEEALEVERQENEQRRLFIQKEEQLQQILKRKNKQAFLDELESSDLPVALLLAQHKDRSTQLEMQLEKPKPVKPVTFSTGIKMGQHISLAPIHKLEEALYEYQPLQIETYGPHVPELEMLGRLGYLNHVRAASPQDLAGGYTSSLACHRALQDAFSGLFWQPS
Method in brief: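 LANCE Ultra TR-FRET kinase assay using a ULight-labeled peptide substrate and a Eu-labeled anti-phospho antibody, with ATP at its Km. Purified CDK/cyclin complex was added to compound after brief centrifugation.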

| CDK1/CDK7: Selectivity of CDK7 inhibition over CDK1 inhibition | Structure (SMILES) |
| --- | --- |
| A (A=greater than 200 fold) | CC(C)c1cnn2c(NCc3c(Cl)cccc3Cl)nc(N3CCC(N)CC3)nc12 [Compound 257] |

same assay, conditions: CDK2/CDK7

| Structure (SMILES) | CDK2/CDK7: Selectivity of CDK7 inhibition over CDK2 inhibition |
| --- | --- |
| CC(C)c1cnn2c(NCc3c(Cl)cccc3Cl)nc(N3CCC(N)CC3)nc12 [Compound 257] | B (B=less than 200 fold, but greater than 20 fold) |

same assay, conditions: CDK5/CDK7

| Structure (SMILES) | CDK5/CDK7: Selectivity of CDK7 inhibition over CDK5 inhibition |
| --- | --- |
| CC(C)c1cnn2c(NCc3c(Cl)cccc3Cl)nc(N3CCC(N)CC3)nc12 [Compound 257] | B (B=less than 200 fold, but greater than 20 fold) |

same assay, conditions: CDK7 over CDK1

| CDK1/CDK7: Selectivity of CDK7 inhibition over CDK1 inhibition | Structure (SMILES) |
| --- | --- |
| A (A=greater than 200 fold) | CC(C)c1cnn2c(NCc3ccccc3-n3cccn3)nc(N3CCN(C)CC3)nc12 [Compound 3] |
| A (A=greater than 200 fold) | CC(C)c1cnn2c(NCc3ccccc3-c3ccc4ccccc4[n+]3[O-])nc(N3CCC(N)CC3)nc12 [Compound 81] |
| A (A=greater than 200 fold) | CC(C)c1cnn2c(NCc3cccc(N4CCN(C)CC4)c3)nc(N3CCC(N)CC3)nc12 [Compound 83] |

| Structure (SMILES) | CDK1/CDK7: Selectivity of CDK7 inhibition over CDK1 inhibition |
| --- | --- |
| NC1CCN(c2nc(NCc3ccccc3-n3cccn3)n3ncc(I)c3n2)CC1 [Compound 36] | B (B=less than 200 fold, but greater than 20 fold) |
| CCC(=O)Nc1cccc(Oc2cccc(CNc3nc(N4CCC(N)CC4)nc4c(C(C)C)cnn34)c2)c1 [Compound 86] | B (B=less than 200 fold, but greater than 20 fold) |

same assay, conditions: CDK7 over CDK2

| CDK2/CDK7: Selectivity of CDK7 inhibition over CDK2 inhibition | Structure (SMILES) |
| --- | --- |
| C (C=less than 20 fold) | NC1CCN(c2nc(NCc3ccccc3-n3cccn3)n3ncc(I)c3n2)CC1 [Compound 36] |
| A (A=greater than 200 fold) | CC(C)c1cnn2c(NCc3ccccc3-c3ccc4ccccc4[n+]3[O-])nc(N3CCC(N)CC3)nc12 [Compound 81] |
| A (A=greater than 200 fold) | CC(C)c1cnn2c(NCc3cccc(N4CCN(C)CC4)c3)nc(N3CCC(N)CC3)nc12 [Compound 83] |

| Structure (SMILES) | CDK2/CDK7: Selectivity of CDK7 inhibition over CDK2 inhibition |
| --- | --- |
| CC(C)c1cnn2c(NCc3ccccc3-n3cccn3)nc(N3CCN(C)CC3)nc12 [Compound 3] | B (B=less than 200 fold, but greater than 20 fold) |
| CCC(=O)Nc1cccc(Oc2cccc(CNc3nc(N4CCC(N)CC4)nc4c(C(C)C)cnn34)c2)c1 [Compound 86] | B (B=less than 200 fold, but greater than 20 fold) |

same assay, conditions: CDK7 over CDK5

| CDK5/CDK7: Selectivity of CDK7 inhibition over CDK5 inhibition | Structure (SMILES) |
| --- | --- |
| C (C=less than 20 fold) | NC1CCN(c2nc(NCc3ccccc3-n3cccn3)n3ncc(I)c3n2)CC1 [Compound 36] |
| A (A=greater than 200 fold) | CC(C)c1cnn2c(NCc3ccccc3-c3ccc4ccccc4[n+]3[O-])nc(N3CCC(N)CC3)nc12 [Compound 81] |
| C (C=less than 20 fold) | CCC(=O)Nc1cccc(Oc2cccc(CNc3nc(N4CCC(N)CC4)nc4c(C(C)C)cnn34)c2)c1 [Compound 86] |

| Structure (SMILES) | CDK5/CDK7: Selectivity of CDK7 inhibition over CDK5 inhibition |
| --- | --- |
| CC(C)c1cnn2c(NCc3ccccc3-n3cccn3)nc(N3CCN(C)CC3)nc12 [Compound 3] | B (B=less than 200 fold, but greater than 20 fold) |
| CC(C)c1cnn2c(NCc3cccc(N4CCN(C)CC4)c3)nc(N3CCC(N)CC3)nc12 [Compound 83] | B (B=less than 200 fold, but greater than 20 fold) |

same assay, conditions: read-out: CDK7 enzymatic activity (IC50 activity range)

| IC50 [nM] | Structure (SMILES) |
| --- | --- |
| < 100 | CC(C)c1cnn2c(NCc3c(Cl)cccc3Cl)nc(N3CCC(N)CC3)nc12 [Compound 257] |

same assay, conditions: read-out: CDK7 enzymatic activity (IC50 range)

| IC50 [nM] | Structure (SMILES) |
| --- | --- |
| < 100 | CC(C)c1cnn2c(NCc3ccccc3-n3cccn3)nc(N3CCN(C)CC3)nc12 [Compound 3] |
| < 100 | NC1CCN(c2nc(NCc3ccccc3-n3cccn3)n3ncc(I)c3n2)CC1 [Compound 36] |
| < 100 | CC(C)c1cnn2c(NCc3ccccc3-c3ccc4ccccc4[n+]3[O-])nc(N3CCC(N)CC3)nc12 [Compound 81] |
| < 100 | CC(C)c1cnn2c(NCc3cccc(N4CCN(C)CC4)c3)nc(N3CCC(N)CC3)nc12 [Compound 83] |
| < 100 | CCC(=O)Nc1cccc(Oc2cccc(CNc3nc(N4CCC(N)CC4)nc4c(C(C)C)cnn34)c2)c1 [Compound 86] |

system: HCT116; test: Cellular HCT116 viability assay (CellTiter-Glo, 72 hours); format: cell-based; details: Homo sapiens, HCT-116
Method in brief: (§2)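 Cells plated in 96 wells and exposed to compound 72 h at 37 °C, 5% CO2, final DMSO below 0.1%, DMSO control. Viability by CellTiter-Glo luminescence, duplicate.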

| IC50 [nM] | Structure (SMILES) |
| --- | --- |
| < 1000 | CC(C)c1cnn2c(NCc3c(Cl)cccc3Cl)nc(N3CCC(N)CC3)nc12 [Compound 257] |

system: H460; test: Cellular H460 viability assay (CellTiter-Glo, 72 hours); format: cell-based; details: Homo sapiens, NCI-H460
Method in brief: as §2

| IC50 [nM] | Structure (SMILES) |
| --- | --- |
| 1000 to 10000 | CC(C)c1cnn2c(NCc3ccccc3-n3cccn3)nc(N3CCN(C)CC3)nc12 [Compound 3] |
| < 1000 | CC(C)c1cnn2c(NCc3c(Cl)cccc3Cl)nc(N3CCC(N)CC3)nc12 [Compound 257] |

system: MV4-11; test: Cellular MV4-11 viability assay (CellTiter-Glo, 72 hours); format: cell-based; details: Homo sapiens
Method in brief: as §2

| IC50 [nM] | Structure (SMILES) |
| --- | --- |
| < 1000 | CC(C)c1cnn2c(NCc3c(Cl)cccc3Cl)nc(N3CCC(N)CC3)nc12 [Compound 257] |

system: MOLT-4; test: Cellular MOLT-4 viability assay (CellTiter-Glo, 72 hours); format: cell-based; details: Homo sapiens, MOLT4 viability assay
Procedure: All cell lines were routinely tested for mycoplasma.
The effect of the CDK7 inhibitor to inhibit the growth of target cancer cells was evaluated through the 72 hours time period of viability assay. Briefly, the candidate cell line ware plated in 96 well plate at the following density of cells respectively. […] DMSO solvent without compound served as a control and final DMSO concentration less than 0.1%. After 72 hours of incubation at 37° C., 5% CO2 incubator, cells were analyzed for the viability using the CellTiter-Glo Luminescent Cell Viability Assay (Promega, Cat #G7570). All viability assays were performed in duplicate and Luminescence was read using an Envision (Perkin Elmer, USA). Data was analyzed using XLfit software.

| IC50 [nM] | Structure (SMILES) |
| --- | --- |
| > 10000 | CC(C)c1cnn2c(NCc3ccccc3-n3cccn3)nc(N3CCN(C)CC3)nc12 [Compound 3] |
| 1000 to 10000 | NC1CCN(c2nc(NCc3ccccc3-n3cccn3)n3ncc(I)c3n2)CC1 [Compound 36] |
| > 10000 | CC(C)c1cnn2c(NCc3ccccc3-c3ccc4ccccc4[n+]3[O-])nc(N3CCC(N)CC3)nc12 [Compound 81] |
| 1000 to 10000 | CC(C)c1cnn2c(NCc3cccc(N4CCN(C)CC4)c3)nc(N3CCC(N)CC3)nc12 [Compound 83] |
| 1000 to 10000 | CCC(=O)Nc1cccc(Oc2cccc(CNc3nc(N4CCC(N)CC4)nc4c(C(C)C)cnn34)c2)c1 [Compound 86] |
